The structures appear in SMILES notation. Structures can show the parent of a compound that is named as a salt.

Chain of FGFR2 (P21802 399-821 limits assumed): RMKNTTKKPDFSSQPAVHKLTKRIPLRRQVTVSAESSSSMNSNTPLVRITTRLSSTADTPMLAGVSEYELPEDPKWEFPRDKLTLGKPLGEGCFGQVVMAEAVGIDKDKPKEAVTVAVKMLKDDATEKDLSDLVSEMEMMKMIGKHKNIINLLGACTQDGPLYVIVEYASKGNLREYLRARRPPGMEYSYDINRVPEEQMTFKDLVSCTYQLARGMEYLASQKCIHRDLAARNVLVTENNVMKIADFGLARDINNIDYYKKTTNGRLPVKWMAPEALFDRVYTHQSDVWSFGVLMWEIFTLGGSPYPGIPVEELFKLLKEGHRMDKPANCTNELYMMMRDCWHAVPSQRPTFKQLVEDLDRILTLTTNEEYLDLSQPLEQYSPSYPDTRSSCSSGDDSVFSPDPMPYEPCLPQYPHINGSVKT

The first assay has as its target FGFR2 (Homo sapiens, UniProt P21802). The experiment in a line: FGFR wild type enzyme assay (HTRF KinEASE-TK), FGFR2. Conditions: Enz FGFR2 (nM).
`Cc1cc(Sc2cc(-c3cnn(C4CCNCC4)c3)cn3ncc(C#N)c23)n(C)n1` [Example 66, 4-((1,3-dimethyl-1H-pyrazol-5-yl)thio)-6-(1-(piperidin-4-yl)-1H-pyrazol-4-yl)pyrazolo[1,5-a]pyridine-3-carbonitrile, HCl] registered an IC50 of 12 nM.
`Cc1c(-c2cc(Sc3cccc4ncn(C)c34)c3c(C#N)cnn3c2)cnn1C1CCN(C)CC1` [Example 132, 4-(3-methylbenzimidazol-4-yl)sulfanyl-6-[5-methyl-1-(1-methyl-4-piperidyl)pyrazol-4-yl]pyrazolo[1,5-a]pyridine-3-carbonitrile] had a 50% inhibitory concentration (IC50) of 10 nM.

Staying with this assay, now noted: Enz FGFR2 (nM), FGFR2 wild type enzyme.
Regarding `Cc1c(-c2cc(Sc3ccc(F)cc3C#N)c3c(C#N)cnn3c2)cnn1[C@H]1CC[C@H](NC(=O)CO)CC1` [Example 301, N-((1r,4r)-4-(4-(3-cyano-4-((2-cyano-4-fluorophenyl)thio)pyrazolo [1,5-a]pyridin-6-yl)-5-methyl-1H-pyrazol-1-yl)cyclohexyl)-2-hydroxyacetamide], it took 1 nM to reach half-maximal inhibition (IC50).
On the same count and under the same terms, the value for `C[C@H](O)CN1CC[C@@H](n2cc(-c3cc(Sc4ccccc4C#N)c4c(C#N)cnn4c3)cn2)C1` [Example 169, 4-(2-cyanophenyl)sulfanyl-6-[1-[(3R)-1-[(2S)-2-hydroxypropyl]pyrrolidin-3-yl]pyrazol-4-yl]pyrazolo[1,5-a]pyridine-3-carbonitrile] was 0.4 nM.
On the same count and under the same terms, in the case of `Cc1c(-c2cc(Sc3ncccc3F)c3c(C#N)cnn3c2)cnn1[C@H]1CC[C@@H](NCC2(C)CC2)CC1` [Example 253, 4-((3-fluoropyridin-2-yl)thio)-6-(5-methyl-1-((1s,4s)-4-(((1-methylcyclopropyl)methyl)amino)cyclohexyl)-1H-pyrazol-4-yl)pyrazolo[1,5-a]pyridine-3-carbonitrile] it was 0.6 nM.
Same read-out and setting: the value for `Cc1c(-c2cc(Sc3ncccc3F)c3c(C#N)cnn3c2)cnn1C1CCNC(C)(C)C1` (stereo not drawn) [Example 178] was 1 nM; that for `Cc1c(-c2cc(Sc3ncccc3F)c3c(C#N)cnn3c2)cnn1[C@H](C)[C@H](O)CO` [Example 197, 6-(1-((2R,3S)-3,4-dihydroxybutan-2-yl)-5-methyl-1H-pyrazol-4-yl)-4-((3-fluoropyridin-2-yl)thio)pyrazolo[1,5-a]pyridine-3-carbonitrile] was 3 nM; that for `Cc1c(-c2cc(Sc3ncccc3F)c3c(C#N)cnn3c2)cnn1[C@@H](C)[C@H](O)CO` [Example 198, 6-(1-((2S,3S)-3,4-dihydroxybutan-2-yl)-5-methyl-1H-pyrazol-4-yl)-4-((3-fluoropyridin-2-yl)thio)pyrazolo[1,5-a]pyridine-3-carbonitrile] was 21 nM.

The same assay, now with this note: Enz FGFR2 (nM), FGFR2 wild type enzyme assay.
Compound `N#Cc1ccccc1Sc1cc(-c2cnn(C3CCC3)c2)cn2ncc(C#N)c12` [Example 624, 4-((2-cyanophenyl)thio)-6-(1-cyclobutyl-1H-pyrazol-4-yl)pyrazolo[1,5-a]pyridine-3-carbonitrile] displayed an IC50 of 1 nM.
Same read-out and setting: the value for `CC1(C)CC[C@@H](n2cc(-c3cc(Sc4ccccc4C#N)c4c(C#N)cnn4c3)cn2)CN1` [Example 594, (R)-4-((2-cyanophenyl)thio)-6-(1-(6,6-dimethylpiperidin-3-yl)-1H-pyrazol-4-yl)pyrazolo[1,5-a]pyridine-3-carbonitrile] was 1 nM; that for `Cc1c(-c2cc(Sc3cccc(Cl)c3C#N)c3c(C#N)cnn3c2)cnn1C1CCN(C)CC1` [Example 385, 4-((3-chloro-2-cyanophenyl)thio)-6-(5-methyl-1-(1-methylpiperidin-4-yl)-1H-pyrazol-4-yl)pyrazolo[1,5-a]pyridine-3-carbonitrile] was 1.5 nM; that for `Cc1c(-c2cc(Sc3ccc(F)cc3C#N)c3c(C#N)cnn3c2)cnn1[C@H]1CC[C@H](OC(=O)[C@@H](N)C(C)C)CC1` [Example 680, (1r,4S)-4-(4-(3-cyano-4-((2-cyano-4-fluorophenyl)thio)pyrazolo [1,5-a]pyridin-6-yl)-5-methyl-1H-pyrazol-1-yl)cyclohexyl L-valinate] was 1 nM.
Same read-out and setting: the value for `Cc1c(-c2cc(Sc3ccc(F)cc3C#N)c3c(C#N)cnn3c2)cnn1[C@H]1CC[C@](C)(N)CC1` [Example 351, 6-(1-((1r,4r)-4-amino-4-methylcyclohexyl)-5-methyl-1H-pyrazol-4-yl)-4-((2-cyano-4-fluorophenyl)thio)pyrazolo [1,5-a]pyridine-3-carbonitrile] was 0.5 nM; that for `COC(=O)N1CCC[C@H](n2ncc(-c3cc(Sc4ccc(F)cc4C#N)c4c(C#N)cnn4c3)c2C)C1` [Example 363, methyl (S)-3-(4-(3-cyano-4-((2-cyano-4-fluorophenyl)thio)pyrazolo [1,5-a]pyridin-6-yl)-5-methyl-1H-pyrazol-1-yl)piperidine-1-carboxylate] was 2 nM.
`CO[C@H]1CC[C@H](n2ncc(-c3cc(Sc4ccc(F)cc4C#N)c4c(C#N)cnn4c3)c2C)CC1` [Example 579, 4-((2-cyano-4-fluorophenyl)thio)-6-(1-((1r,4r)-4-methoxycyclohexyl)-5-methyl-1H-pyrazol-4-yl)pyrazolo[1,5-a]pyridine-3-carbonitrile] displayed an IC50 of 1.5 nM.
Same read-out and setting: the value for `C[C@H](O)C(=O)N1CCC(n2cc(-c3cc(Sc4ccc(F)cc4C#N)c4c(C#N)cnn4c3)cn2)CC1` [Example 475, (S)-4-((2-cyano-4-fluorophenyl)thio)-6-(1-(1-(2-hydroxypropanoyl)piperidin-4-yl)-1H-pyrazol-4-yl)pyrazolo[1,5-a]pyridine-3-carbonitrile] was 1 nM.
The same measure, in the same setting: in the case of `C[C@]1(O)CC[C@H](n2cc(-c3cc(Sc4ccc(F)cc4C#N)c4c(C#N)cnn4c3)cn2)CC1` [Example 501, 4-((2-cyano-4-fluorophenyl)thio)-6-(1-((1r,4r)-4-hydroxy-4-methylcyclohexyl)-1H-pyrazol-4-yl)pyrazolo[1,5-a]pyridine-3-carbonitrile] it was 1 nM; in that of `Cc1c(-c2cc(Sc3ccc(F)cc3C#N)c3c(C#N)cnn3c2)cnn1C1CCN([C@H](C)CO)CC1` [Example 381, (R)-4-((2-cyano-4-fluorophenyl)thio)-6-(1-(1-(1-hydroxypropan-2-yl)piperidin-4-yl)-5-methyl-1H-pyrazol-4-yl)pyrazolo[1,5-a]pyridine-3-carbonitrile], 1 nM; in that of `CN(C)C(=O)CCn1cc(-c2cc(Sc3ccccc3C#N)c3c(C#N)cnn3c2)cn1` [Example 671, 3-(4-(3-cyano-4-((2-cyanophenyl)thio)pyrazolo [1,5-a]pyridin-6-yl)-1H-pyrazol-1-yl)-N,N-dimethylpropanamide], 0.5 nM.
On the same count and under the same terms, the value for `Cc1c(-c2cc(Sc3ccc(F)cc3C#N)c3c(C#N)cnn3c2)cnn1[C@H]1CCCC[C@@H]1O` [Example 633, 4-((2-cyano-4-fluorophenyl)thio)-6-(1-((2S,2S)-2-hydroxycyclohexyl)-5-methyl-1H-pyrazol-4-yl)pyrazolo[1,5-a]pyridine-3-carbonitrile] was 1 nM.
With `N#Cc1cc(F)ccc1Sc1cc(-c2ccc(N3CCNC(=O)C3)nc2)cn2ncc(C#N)c12` [Example 657, 4-((2-cyano-4-fluorophenyl)thio)-6-(6-(3-oxopiperazin-1-yl)pyridin-3-yl)pyrazolo[1,5-a]pyridine-3-carbonitrile], the IC50 was 3 nM.
The same measure, in the same setting: the value for `N#Cc1ccccc1Sc1cc(-c2cnn([C@H]3CCCNC3)n2)cn2ncc(C#N)c12` [Example 463, (S)-4-((2-cyanophenyl)thio)-6-(2-(piperidin-3-yl)-2H-1,2,3-triazol-4-yl)pyrazolo[1,5-a]pyridine-3-carbonitrile] was 6 nM.
Still for that read-out and setting: in the case of `N#Cc1ccccc1Sc1cc(-c2cnn([C@H]3CCCC[C@@H]3O)c2)cn2ncc(C#N)c12` [Example 518, 4-((2-cyanophenyl)thio)-6-(1-((1S,2S)-2-hydroxycyclohexyl)-1H-pyrazol-4-yl)pyrazolo[1,5-a]pyridine-3-carbonitrile] it was 0.4 nM; in that of `N#Cc1ccccc1Sc1cc(-c2cn([C@H]3CCCNC3)nn2)cn2ncc(C#N)c12` [Example 461, (S)-4-((2-cyanophenyl)thio)-6-(1-(piperidin-3-yl)-1H-1,2,3-triazol-4-yl)pyrazolo[1,5-a]pyridine-3-carbonitrile], 4 nM; in that of `CC(C)(O)Cn1cc(-c2cc(Sc3ccccc3C#N)c3c(C#N)cnn3c2)cn1` [Example 494, 4-((2-cyanophenyl)thio)-6-(1-(2-hydroxy-2-methylpropyl)-1H-pyrazol-4-yl)pyrazolo[1,5-a]pyridine-3-carbonitrile], 1 nM.
On the same count and under the same terms, the value for `CN1CCC(n2ncc(-c3cc(Sc4ncccc4F)c4c(C#N)cnn4c3)c2C#N)CC1` [Example 370, 6-(5-cyano-1-(1-methylpiperidin-4-yl)-1H-pyrazol-4-yl)-4-((3-fluoropyridin-2-yl)thio)pyrazolo[1,5-a]pyridine-3-carbonitrile] was 35 nM; that for `CCn1cc(-c2cc(Sc3ccccc3C#N)c3c(C#N)cnn3c2)cn1` [Example 572, 4-((2-cyanophenyl)thio)-6-(1-ethyl-1H-pyrazol-4-yl)pyrazolo[1,5-a]pyridine-3-carbonitrile] was 1 nM.
`C[C@H](O)CN1CC[C@H](n2cc(-c3cc(Sc4ccccc4C#N)c4c(C#N)cnn4c3)cn2)C1` [Example 677, 4-((2-cyanophenyl)thio)-6-(1-((S)-1-((S)-2-hydroxypropyl)pyrrolidin-3-yl)-1H-pyrazol-4-y)pyrazolo[1,5-a]pyridine-3-carbonitrile]: 0.3 nM corresponded to half-maximal inhibition (IC50).
Same read-out and setting: the value for `CC(=O)N[C@@H]1CC[C@@H](n2cc(-c3cc(Sc4ccccc4C#N)c4c(C#N)cnn4c3)cn2)C1` [Example 368, N-((1R,3R)-3-(4-(3-cyano-4-((2-cyanophenyl)thio)pyrazolo [1,5-a]pyridin-6-yl)-1H-pyrazol-1-yl)cyclopentyl)acetamide] was 0.4 nM; that for `N#Cc1cnn2cc(-c3ccc(N4CC[C@H](O)C4)nc3)cc(Sc3ncccc3F)c12` [Example 550, (S)-4-((3-fluoropyridin-2-yl)thio)-6-(6-(3-hydroxypryrrolidin-1-yl)pyridin-3-yl)pyrazolo[1,5-a]pyridine-3-carbonitrile] was 1.5 nM.

(Values after patent US20240270741A1 (Cogent Biosciences, Inc., priority 2023, published 2024).)
